Values of other authors in US20040242698A1, “Analeptic and antidepressant combinations” (Cephalon Inc., priority 2003, published 2004).

Key:
rats = settings: Touret et al., 1995, Edgar and Seidel, 1997
cats = settings: Lin et al., 1992
canines = settings: Shelton et al., 1995
non-human primates = settings: Hernant et al, 1991
[1] = tested on: English bulldog sleep disordered breathing model; settings: sleep apnea model; Panckeri et al, 1996
narcoleptic canine = settings: narcolepsy model; Shelton et al, 1995
[2] = tested on: major depressive disorder; settings: at 6 weeks

NC(=O)C[S+]([O-])C(c1ccccc1)c1ccccc1 (stereo not shown) [Modafinil, 2-(benzhydrylsulfinyl) acetamide]
wakefulness (rats): promotes wakefulness | wakefulness (cats): promotes wakefulness | wakefulness (canines): promotes wakefulness | wakefulness (non-human primates): promotes wakefulness | wakefulness [1]: promotes wakefulness | wakefulness (narcoleptic canine): promotes wakefulness

CNCCC(Oc1ccc(C(F)(F)F)cc1)c1ccccc1 (stereo not shown) [fluoxetine]
response [2]: about 50%
